PubChem BioAssay (NCI)
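48-hour exposure; five concentrations; linearly interpolated endpoints. TGI denotes the concentration required for complete inhibition of growth.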

What was measured:
Assay in all cases: DTP human tumour cell line panel, 48 h
KM12 colon = test system: KM12 colon
SN12C renal = test system: SN12C renal
OVCAR-3 ovarian = test system: OVCAR-3 ovarian
SNB-75 CNS = test system: SNB-75 CNS
MDA-MB-435 = test system: MDA-MB-435
MALME-3M melanoma = test system: MALME-3M melanoma
RXF 393 renal = test system: RXF 393 renal
CAKI-1 renal = test system: CAKI-1 renal
NCI/ADR-RES ovarian = test system: NCI/ADR-RES ovarian
A498 renal = test system: A498 renal
SF-268 CNS = test system: SF-268 CNS
MDA-MB-231 breast = test system: MDA-MB-231 breast
OVCAR-8 ovarian = test system: OVCAR-8 ovarian
HCC-2998 colon = test system: HCC-2998 colon
BT-549 breast = test system: BT-549 breast
HS 578T breast = test system: HS 578T breast
SF-539 CNS = test system: SF-539 CNS
TK-10 renal = test system: TK-10 renal
ACHN renal = test system: ACHN renal
LOX IMVI melanoma = test system: LOX IMVI melanoma
MCF7 breast = test system: MCF7 breast
HL-60(TB) leukemia = test system: HL-60(TB) leukemia
HCT-116 colon = test system: HCT-116 colon
SF-295 CNS = test system: SF-295 CNS
SK-OV-3 ovarian = test system: SK-OV-3 ovarian
NCI-H522 lung = test system: NCI-H522 lung
HCT-15 colon = test system: HCT-15 colon
SR leukemia = test system: SR leukemia
OVCAR-5 ovarian = test system: OVCAR-5 ovarian
T-47D breast = test system: T-47D breast
K-562 leukemia = test system: K-562 leukemia
M14 melanoma = test system: M14 melanoma
U251 CNS = test system: U251 CNS
RPMI-8226 leukemia = test system: RPMI-8226 leukemia
UACC-257 melanoma = test system: UACC-257 melanoma
UO-31 renal = test system: UO-31 renal
NCI-H460 lung = test system: NCI-H460 lung
UACC-62 melanoma = test system: UACC-62 melanoma
CCRF-CEM leukemia = test system: CCRF-CEM leukemia
EKVX NSCLC = test system: EKVX NSCLC
HOP-92 NSCLC = test system: HOP-92 NSCLC
DU-145 prostate = test system: DU-145 prostate
MOLT-4 leukemia = test system: MOLT-4 leukemia
NCI-H226 lung = test system: NCI-H226 lung
NCI-H23 lung = test system: NCI-H23 lung
PC-3 prostate = test system: PC-3 prostate
SK-MEL-2 melanoma = test system: SK-MEL-2 melanoma
MDA-N = test system: MDA-N
A549 NSCLC = test system: A549 NSCLC
SK-MEL-28 melanoma = test system: SK-MEL-28 melanoma
SW-620 colon = test system: SW-620 colon
SNB-19 CNS = test system: SNB-19 CNS
786-0 renal = test system: 786-0 renal
HOP-62 NSCLC = test system: HOP-62 NSCLC
COLO 205 colon = test system: COLO 205 colon
HT29 colon = test system: HT29 colon
IGROV1 ovarian = test system: IGROV1 ovarian
OVCAR-4 ovarian = test system: OVCAR-4 ovarian
SK-MEL-5 melanoma = test system: SK-MEL-5 melanoma

SMILES: C/C(=N\NC(=S)NCCNC(=S)N/N=C(\C)c1ccccn1)c1ccccn1
- TGI (KM12 colon): > 100 µM
- TGI (SN12C renal): 7.31 µM
- TGI (OVCAR-3 ovarian): > 100 µM
- TGI (SNB-75 CNS): 11.2 µM
- TGI (MDA-MB-435): > 100 µM
- TGI (MALME-3M melanoma): > 78.8 µM
- TGI (RXF 393 renal): > 100 µM
- TGI (CAKI-1 renal): > 89.7 µM
- TGI (NCI/ADR-RES ovarian): 6.06 µM
- TGI (A498 renal): 37.5 µM
- TGI (SF-268 CNS): 49 µM
- TGI (MDA-MB-231 breast): > 70.9 µM
- TGI (OVCAR-8 ovarian): > 100 µM
- TGI (HCC-2998 colon): > 100 µM
- TGI (BT-549 breast): 47.8 µM
- TGI (HS 578T breast): > 100 µM
- TGI (SF-539 CNS): 6.63 µM
- TGI (TK-10 renal): > 30 µM
- TGI (ACHN renal): > 28.5 µM
- TGI (LOX IMVI melanoma): 30.9 µM
- TGI (MCF7 breast): > 100 µM
- TGI (HL-60(TB) leukemia): > 22.6 µM
- TGI (HCT-116 colon): 31.4 µM
- TGI (SF-295 CNS): > 100 µM
- TGI (SK-OV-3 ovarian): > 100 µM
- TGI (NCI-H522 lung): > 100 µM
- TGI (HCT-15 colon): > 25.9 µM
- TGI (SR leukemia): 2.53 µM
- TGI (OVCAR-5 ovarian): > 100 µM
- TGI (T-47D breast): > 29.3 µM
- TGI (K-562 leukemia): > 100 µM
- TGI (M14 melanoma): 4.27 µM
- TGI (U251 CNS): > 48.6 µM
- TGI (RPMI-8226 leukemia): 9.67 µM
- TGI (UACC-257 melanoma): 22.3 µM
- TGI (UO-31 renal): > 100 µM
- TGI (NCI-H460 lung): > 20.2 µM
- TGI (UACC-62 melanoma): 11.7 µM
- TGI (CCRF-CEM leukemia): > 26.1 µM
- TGI (EKVX NSCLC): > 100 µM
- TGI (HOP-92 NSCLC): > 100 µM
- TGI (DU-145 prostate): > 100 µM
- TGI (MOLT-4 leukemia): > 26 µM
- TGI (NCI-H226 lung): > 26.9 µM
- TGI (NCI-H23 lung): > 63.8 µM
- TGI (PC-3 prostate): > 100 µM
- TGI (SK-MEL-2 melanoma): > 100 µM
- TGI (MDA-N): > 100 µM
- TGI (A549 NSCLC): > 100 µM
- TGI (SK-MEL-28 melanoma): > 100 µM
- TGI (SW-620 colon): > 100 µM
- TGI (SNB-19 CNS): > 100 µM
- TGI (786-0 renal): 6.05 µM
- TGI (HOP-62 NSCLC): 12.5 µM
- TGI (COLO 205 colon): > 29.2 µM
- TGI (HT29 colon): > 100 µM
- TGI (IGROV1 ovarian): > 31.5 µM
- TGI (OVCAR-4 ovarian): > 71.2 µM

SMILES: COc1cc2c(cc1OC)C(=O)/C(=C/c1ccccc1)CC2
- TGI (KM12 colon): 35.5 µM
- TGI (SN12C renal): > 100 µM
- TGI (OVCAR-3 ovarian): > 100 µM
- TGI (SK-MEL-5 melanoma): 35.2 µM
- TGI (SNB-75 CNS): > 100 µM
- TGI (MDA-MB-435): > 100 µM
- TGI (MALME-3M melanoma): > 100 µM
- TGI (RXF 393 renal): > 100 µM
- TGI (CAKI-1 renal): 48.3 µM
- TGI (NCI/ADR-RES ovarian): 70 µM
- TGI (A498 renal): 44.8 µM
- TGI (SF-268 CNS): > 100 µM
- TGI (MDA-MB-231 breast): > 100 µM
- TGI (OVCAR-8 ovarian): > 100 µM
- TGI (HCC-2998 colon): 54.9 µM
- TGI (BT-549 breast): 74.1 µM
- TGI (HS 578T breast): > 100 µM
- TGI (SF-539 CNS): > 100 µM
- TGI (TK-10 renal): > 100 µM
- TGI (ACHN renal): > 100 µM
- TGI (LOX IMVI melanoma): > 100 µM
- TGI (MCF7 breast): > 100 µM
- TGI (HL-60(TB) leukemia): 17.2 µM
- TGI (HCT-116 colon): > 100 µM
- TGI (SF-295 CNS): 41.1 µM
- TGI (SK-OV-3 ovarian): 97.5 µM
- TGI (NCI-H522 lung): > 100 µM
- TGI (HCT-15 colon): 50.3 µM
- TGI (SR leukemia): > 100 µM
- TGI (OVCAR-5 ovarian): > 100 µM
- TGI (T-47D breast): > 100 µM
- TGI (K-562 leukemia): > 100 µM
- TGI (M14 melanoma): > 100 µM
- TGI (U251 CNS): > 100 µM
- TGI (RPMI-8226 leukemia): > 100 µM
- TGI (UACC-257 melanoma): > 100 µM
- TGI (UO-31 renal): > 100 µM
- TGI (NCI-H460 lung): > 100 µM
- TGI (CCRF-CEM leukemia): > 100 µM
- TGI (EKVX NSCLC): > 100 µM
- TGI (HOP-92 NSCLC): 67.3 µM
- TGI (DU-145 prostate): > 100 µM
- TGI (MOLT-4 leukemia): 71.2 µM
- TGI (NCI-H226 lung): 74.6 µM
- TGI (NCI-H23 lung): > 100 µM
- TGI (PC-3 prostate): > 100 µM
- TGI (SK-MEL-2 melanoma): 29.8 µM
- TGI (MDA-N): > 100 µM
- TGI (A549 NSCLC): > 100 µM
- TGI (SK-MEL-28 melanoma): > 100 µM
- TGI (SW-620 colon): > 100 µM
- TGI (SNB-19 CNS): > 100 µM
- TGI (786-0 renal): > 100 µM
- TGI (HOP-62 NSCLC): > 100 µM
- TGI (COLO 205 colon): 38.8 µM
- TGI (HT29 colon): 46.2 µM
- TGI (IGROV1 ovarian): > 100 µM
- TGI (OVCAR-4 ovarian): > 100 µM

SMILES: Cc1cc2c(cc1C)N1C(Cl)=C3CCCCC3=C(C#N)C1N2 (centres undefined)
- TGI (KM12 colon): 24 µM
- TGI (SN12C renal): 14.7 µM
- TGI (OVCAR-3 ovarian): 30.5 µM
- TGI (SK-MEL-5 melanoma): > 32.8 µM
- TGI (SNB-75 CNS): 56.9 µM
- TGI (MDA-MB-435): > 33.1 µM
- TGI (MALME-3M melanoma): 34.6 µM
- TGI (RXF 393 renal): 29 µM
- TGI (CAKI-1 renal): 12.3 µM
- TGI (NCI/ADR-RES ovarian): 14.5 µM
- TGI (A498 renal): 33.8 µM
- TGI (SF-268 CNS): 60.4 µM
- TGI (MDA-MB-231 breast): 30.1 µM
- TGI (OVCAR-8 ovarian): 32.9 µM
- TGI (HCC-2998 colon): 22.4 µM
- TGI (BT-549 breast): 8.46 µM
- TGI (HS 578T breast): > 100 µM
- TGI (SF-539 CNS): 41.6 µM
- TGI (TK-10 renal): 18.6 µM
- TGI (ACHN renal): 10.5 µM
- TGI (LOX IMVI melanoma): 4.37 µM
- TGI (MCF7 breast): 21.6 µM
- TGI (HL-60(TB) leukemia): > 100 µM
- TGI (SF-295 CNS): 42.4 µM
- TGI (SK-OV-3 ovarian): 39.6 µM
- TGI (NCI-H522 lung): 3.91 µM
- TGI (HCT-15 colon): 7.76 µM
- TGI (SR leukemia): > 100 µM
- TGI (OVCAR-5 ovarian): 36 µM
- TGI (T-47D breast): 28.3 µM
- TGI (K-562 leukemia): > 100 µM
- TGI (M14 melanoma): 21.2 µM
- TGI (U251 CNS): 24.6 µM
- TGI (RPMI-8226 leukemia): > 100 µM
- TGI (UACC-257 melanoma): 22.3 µM
- TGI (UO-31 renal): 17.7 µM
- TGI (NCI-H460 lung): 51.8 µM
- TGI (UACC-62 melanoma): 7.63 µM
- TGI (CCRF-CEM leukemia): > 23.2 µM
- TGI (EKVX NSCLC): 41.2 µM
- TGI (HOP-92 NSCLC): > 30.4 µM
- TGI (DU-145 prostate): 36.4 µM
- TGI (MOLT-4 leukemia): > 42.9 µM
- TGI (NCI-H226 lung): 30.5 µM
- TGI (NCI-H23 lung): 14.2 µM
- TGI (PC-3 prostate): 27.3 µM
- TGI (SK-MEL-2 melanoma): 29.2 µM
- TGI (MDA-N): 15.1 µM
- TGI (A549 NSCLC): 45.8 µM
- TGI (SK-MEL-28 melanoma): 10.6 µM
- TGI (SW-620 colon): 4.39 µM
- TGI (SNB-19 CNS): 45.3 µM
- TGI (786-0 renal): 3.61 µM
- TGI (HOP-62 NSCLC): 30.1 µM
- TGI (COLO 205 colon): 33.9 µM
- TGI (HT29 colon): 6.94 µM
- TGI (IGROV1 ovarian): 28.3 µM
- TGI (OVCAR-4 ovarian): 31.7 µM
